Source: paper PMC9043233, “Newly synthesised oxime and lactone derivatives from Dipterocarpus alatus dipterocarpol as anti-diabetic inhibitors: experimental bioassay-based evidence and theoretical computation-based prediction” (RSC Advances, 2021)
Entries after “also recorded” stand apart in the source; their conditions may differ.

system: not given

Row | melting point | Structure (SMILES)
1 | 195 to 196 °C | CC1(C)C2CC[C@]3(C)C(CCC4[C@@H]([C@@]5(C)CCC(=O)O5)CC[C@]43C)[C@@]2(C)CC[C@@H]1O (stereo partly drawn) [Compound 5, 3β-hydroxy-17-[(5α-methyl)-3,4H-furane-2-one]-25,26,27-tris-nor-dammarane]
2 | 248 to 249 °C | CC(=O)O[C@H]1CC[C@@]2(C)C(CC[C@]3(C)C2CCC2[C@@H]([C@@]4(C)CCC(=O)O4)CC[C@]23C)C1(C)C (stereo partly drawn) [Compound 6a, 17-[(5α-methyl)-3,4H-furane-2-one]-3β-(O-acetyl)-25,26,27-tris-nor-dammarane]
3 | 134 to 135 °C | CCCCC(=O)O[C@H]1CC[C@@]2(C)C(CC[C@]3(C)C2CCC2[C@@H]([C@@]4(C)CCC(=O)O4)CC[C@]23C)C1(C)C (stereo partly drawn) [Compound 6b, 17-[(5α-methyl)-3,4H-furane-2-one]-3β-(O-pentanoyl)-25,26,27-tris-nor-dammarane]
4 | 206 to 207 °C | CC(C)C(=O)O[C@H]1CC[C@@]2(C)C(CC[C@]3(C)C2CCC2[C@@H]([C@@]4(C)CCC(=O)O4)CC[C@]23C)C1(C)C (stereo partly drawn) [Compound 6c, 17-[(5α-methyl)-3,4H-furane-2-one]-3β-(O-isobutyryl)-25,26,27-tris-nor-dammarane]
5 | 186 to 187 °C | CC1(C)C2CC[C@]3(C)C(CCC4[C@@H]([C@@]5(C)CCC(=O)O5)CC[C@]43C)[C@@]2(C)CC[C@@H]1OC(=O)c1ccccc1O (stereo partly drawn) [Compound 6d, 17-[(5α-methyl)-3,4H-furane-2-one]-3β-(O-salycyloyl)-25,26,27-tris-nor-dammarane]
6 | 236 to 238 °C | CC1(C)C2CC[C@]3(C)C(CCC4[C@@H]([C@@]5(C)CCC(=O)O5)CC[C@]43C)[C@@]2(C)CC[C@@H]1OC(=O)/C=C/c1ccccc1 (stereo partly drawn) [Compound 6e, 17-[(5α-methyl)-3,4H-furane-2-one]-3β-(O-cinnamoyl)-25,26,27-tris-nor-dammarane]

Row | Structure (SMILES) | melting point
7 | CC1(C)C(=O)CC[C@@]2(C)C1CC[C@]1(C)C2CCC2[C@@H]([C@@]3(C)CCC(=O)O3)CC[C@]21C (stereo partly drawn) [Compound 4, 17-[(5α-methyl)-3,4H-furane-2-one]-25,26,27-tris-nor-dammar-3-one] | 118.4 to 120.3 °C

target: α-glucosidase (Saccharomyces cerevisiae, UniProt P53341); format: biochemical
Experimental: The bioassay was carried out on 96 well-plates (200 μL per well). A solution of the test samples in 10% dimethyl sulfoxide (DMSO) was diluted further to concentrations of 1024, 256, 64, 16, 4, and 1 μg mL^−1. Each concentration of the test samples (10 μL) was incubated at 37 °C with phosphate buffer 100 mM (pH 6.8, 40 μL), α-glucosidase 0.4 U mL^−1 (25 μL), and p-nitrophenyl α-D-glucopyranoside 2.5 mM (25 μL). The reaction was stopped after 30 min by adding 100 μL of 0.1 M Na2CO3. The enzyme activities were measured based on the absorbance at λmax 405 nm of the test samples. […] Percentage inhibition was calculated as follows:[38]α-Glucosidase inhibition (%) = [Abs(control) − Abs(sample)]/Abs(control) × 100%

Sequence of α-glucosidase (P53341 whole entry): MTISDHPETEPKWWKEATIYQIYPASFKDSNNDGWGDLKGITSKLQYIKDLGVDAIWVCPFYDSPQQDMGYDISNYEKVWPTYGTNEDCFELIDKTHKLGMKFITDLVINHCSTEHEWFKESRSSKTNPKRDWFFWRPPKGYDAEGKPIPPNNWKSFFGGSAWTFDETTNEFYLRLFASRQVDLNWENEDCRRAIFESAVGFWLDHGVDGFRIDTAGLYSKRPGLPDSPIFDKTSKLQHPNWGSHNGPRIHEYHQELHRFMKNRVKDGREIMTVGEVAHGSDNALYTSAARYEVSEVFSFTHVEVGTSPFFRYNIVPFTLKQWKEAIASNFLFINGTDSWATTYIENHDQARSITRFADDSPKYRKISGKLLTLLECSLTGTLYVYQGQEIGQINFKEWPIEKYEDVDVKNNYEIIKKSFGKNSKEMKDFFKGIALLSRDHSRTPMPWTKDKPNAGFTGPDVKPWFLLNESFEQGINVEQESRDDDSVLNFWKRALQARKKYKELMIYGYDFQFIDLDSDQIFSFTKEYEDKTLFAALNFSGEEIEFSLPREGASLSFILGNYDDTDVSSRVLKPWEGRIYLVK

Row | Structure (SMILES) | α-glucosidase inhibition, result in words
8 | CC(C)=CCC[C@](C)(O)[C@H]1CC[C@]2(C)[C@@H]1CC[C@@H]1[C@@]3(C)CCC(=O)C(C)(C)[C@@H]3CC[C@]12C [Compound 1, dipterocarpol] | weak activity
9 | CC(C)=CCCC(C)(O)C1CCC2(C)C1CCC1C3(C)CCC(=NOC(=O)c4cnc(C)cn4)C(C)(C)C3CCC12C [Compound 3a, 20(S)-hydroxy dammar-24-ene-3-oximyl-[5-methyl-3,6-diazine-1-carboxylate]] | no inhibition activity; also recorded: unnoticeable inhibition
10 | CC(C)=CCCC(C)(O)C1CCC2(C)C1CCC1C3(C)CCC(=NOC(=O)c4cc(I)cc(I)c4O)C(C)(C)C3CCC12C [Compound 3d, 20(S)-hydroxydammar-24-ene-3-oximyl-[2-hydroxy-3,5-diiodobenzoate]] | loss of their activity; also recorded: no inhibition activity
11 | CC(C)=CCCC(C)(O)C1CCC2(C)C1CCC1C3(C)CCC(=NOC(=O)c4ccc(F)cc4)C(C)(C)C3CCC12C [Compound 3g, 20(S)-hydroxydammar-24-ene-3-oximyl-[4-fluorobenzoate]] | no α-glucosidase inhibition; also recorded: no inhibition activity; also recorded: unnoticeable inhibition
12 | CC(C)=CCCC(C)(O)C1CCC2(C)C1CCC1C3(C)CCC(=NOC(=O)c4ccccc4I)C(C)(C)C3CCC12C [Compound 3h, 20(S)-hydroxydammar-24-ene-3-oximyl-[2-iodobenzoate]] | loss of their activity; also recorded: no inhibition activity; also recorded: unnoticeable inhibition
13 | CC(C)=CCCC(C)(O)C1CCC2(C)C1CCC1C3(C)CCC(=NOC(=O)C(C)C)C(C)(C)C3CCC12C [Compound 3m, 20(S)-hydroxydammar-24-ene-3-oximyl isobutyrate] | no inhibition activity; also recorded: unnoticeable inhibition
14 | CC1(C)C(=O)CC[C@@]2(C)C1CC[C@]1(C)C2CCC2[C@@H]([C@@]3(C)CCC(=O)O3)CC[C@]21C (stereo partly drawn) [Compound 4, 17-[(5α-methyl)-3,4H-furane-2-one]-25,26,27-tris-nor-dammar-3-one] | no inhibition activity; also recorded: unnoticeable inhibition
